Test results published in patent US10695406B2, “Modulation of cellular stress using a B-cell oxidative and/or endoplasmic reticulum stress inhibitor and a targeting agent” (THE UNIVERSITY OF QUEENSLAND, priority 2014, dated 2020).

How the values were obtained:
Human LS174T cells = assay: Oxidative stress (nitrite, Griess assay) in LS174T cells with 0.5 mM palmitate; assay type: cell-based; details: human LS174T cells, 0.5 mM palmitate
Experimental: Cell culture: Murine MIN6N8 cells were tested negative for mycoplasma. Cells were routinely cultured in phenol-red free DMEM (Life Technologies) containing 25 mM glucose (3.4 g/L sodium bicarbonate, 50 U/mL penicillin and streptomycin, 71.5 μM β-mercaptoethanol and 10% heat inactivated fetal bovine serum) and transferred to DMEM as above with 5.5 mM glucose 48 h prior to experimentation. Human LS174T cells were cultured in DMEM containing 10% heat-inactivated fetal bovine serum, 50 U mL^−1 penicillin and streptomycin.
The Griess Reagent Kit for Nitrite Determination was performed according to the manufacturer's instructions (Molecular Probes) to assess the intracellular levels of nitrite (the stable metabolite of nitric oxide) using lysates of β-cells prepared in RIPA buffer (150 mM NaCl, 1% NP40, 0.5% sodium deoxycholate, 0.1% SDS, 50 mM Tris, pH 7.5).

murine islets = assay: Murine islets ex vivo: ER stress, gene expression, insulin and proinsulin secretion; assay type: cell-based, mice
Experimental: Healthy islets were cultured with 10 μg/mL tunicamycin or 5 μM thapsigargin±IL-22 for 6 hours. Alternatively the islets were cultured in the presence of ER stress-inducing cytokines±IL-22 for 24 hours. The cultures were then cultured consecutively for 30 minutes in 2.8 mM glucose, 20 mM glucose, or a combination of 20 mM glucose and 100 nM GLP-1.
All mice were housed in sterilized, filter-topped cages in a conventional clean facility. Six to eight week old C57BL/6 male mice were fed ad libitum on a high fat diet containing 46% of available energy as saturated fat, 34% carbohydrate, 20% protein (Speciality feeds, SF04-027). Or on normal chow containing less than 10% saturated fat (GOLDMIX, 126575). Cages of mice were randomly allocated to the experimental groups by random draw. Investigators were not blinded to treatment by there were no subjective assessments made.
Total insulin and proinsulin were measured in supernatant from islet cultures or in serum from mice using commercially obtained ELISA kits from MILLIPORE and MERCODIA, respectively. The molar insulin concentration was determined by subtracting the molar proinsulin concentration from molar total insulin, and then the serum proinsulin:insulin ratio was calculated.

[1] = healthy islets, co-treatment with ER stress agents

How did the “fold higher concentrations required for the same effect as human recombinant IL-22 in suppressing oxidative stress (nitrite)” value (Human LS174T cells) turn out when “IL-22: interleukin-22; recombinant murine IL-22 (R&D SYSTEMS) in the mouse experiments” was run?
The value was about 64 fold.

What about the “MIP2α mRNA” value (murine islets; HFDIO islets cultured 24 h in 2.8 mM glucose ± 50 ng/mL IL-22) of the same substance?
Its value is “reduced substantially”.

What about the “acute islet ER stress (Xbp1-splicing, Hspa5 mRNA)” value (murine islets; [1]) of the same substance?
The value was “suppresses the acute islet oxidative stress-driven ER stress”.

And the “glucose and glucose plus GLP-1 stimulated insulin secretion” value (murine islets; [1])?
The value was “restores appropriate glucose and glucose plus GLP-1 stimulated insulin secretion”.

What about the proinsulin secretion (murine islets; islets from HFDIO mice) of the same substance?
The proinsulin secretion was “proinsulin secretion ceased”.

And the “insulin hyper-secretion (GSIS)” value (murine islets; islets from HFDIO mice, after culture)?
The value was “returned to levels in non-obese islets”.

What about the “ER stress, antioxidant gene expression and Nos2” value (murine islets; islets from HFDIO mice, culture 24 hours) of the same substance?
The value was “reduced ER stress, increased antioxidant gene expression and decreased Nos2”.
